The text below walks through data of patent US7585859B2, “PDE4B inhibitors and uses therefor” (Plexxikon, Inc., priority 2004, dated 2009).

Type in all cases: biochemical
The target of test [1] is T1, full-length human PDE4B2 isozyme (Homo sapiens, UniProt Q07343).
T1 construct: The full-length human PDE4B2 isozyme; His6 (N); TEV cleavage site (N); made in house; host or cells: baculovirus infected insect cells (unpurified lysate)
As to the kind of experiment: PDE4 IC50 determination by Scintillation Proximity Assay, PDE4B2. As to conditions: Table 1B, Formula I compounds; read-out: IC50 PDE4B2. Here is the method: (§1) IC50s were determined by Scintillation Proximity Assay (SPA). The principle of the assay is based on the fact that cAMP, the PDE4 substrate, binds weakly to Yittrium Silicate SPA beads, whereas AMP, the product of PDE4 hydrolysis binds strongly. Thus, the extent of PDE4 hydrolysis of a sample of [^3H]cAMP can be measured because only the
(§2) [^3H]AMP produced by PDE4 hydrolysis will bind to the SPA beads and produce a scintillation signal.
(§3) PDE4 enzymes used for IC50 assays were:
PDE4B2: The full-length human PDE4B2 isozyme with an N-terminal His6 tag (SEQ ID NO: 18) and TEV cleavage site expressed in baculovirus infected insect cells. The enzyme was not purified from the cell lysates, so enzyme concentrations were not determined. Enzyme was stored in 50% glycerol at −20°.
(§4) Compounds tested (see Tables 3B, 4B and 5A for compounds and results) were 3-fold serially diluted 11 times in DMSO from a starting concentration of 4 mM or 40 μM, depending on compound potency. 1 μl of each dilution was transferred into duplicate wells of a white polystyrene 384-well assay plate (Coming #3705). In addition to the compound dilutions, each assay plate contained control wells with 1 μl of DMSO (to define 0% enzyme inhibition) or 1 μl of 200 μM roflumilast (to define 100% enzyme inhibition). Using a Beckman FX robot, 10 μl of [^3H] cAMP (Amersham TRK559) at 2 mCi/ml in assay buffer (50 mM Tris, pH 7.5; 8.3 mM MgCl; 1.7 mM EGTA; 0.01% BSA) was transferred to each assay well. Next, 10 μl of PDE4 enzyme in assay buffer was added and the plates were shaken for 30 s. at 1000 rpm to start the cAMP hydrolysis reaction. The concentrations of enzyme used were: PDE4B, 80 ng/ml; PDE4D, 4 ng/ml; PDE4B2, 2.5 μl of 50% glycerol stock/ml; PDE4D5 0.083 μl of 50% glycerol stock/ml. Assay plates were covered and incubated for 30 min. at 30°. Reactions were stopped by robotic addition of 10 μl of 5 mg/ml SPA beads (Amersham RPNQ0013) in 18 mM ZnSO4. The assay plates were covered with clear plastic film, centrifuged for 1 min. at 1000 RPM to settle the SPA beads, and counted using a Wallac TriLux scintillation counter. IC50's were calculated from the raw assay data by non-linear regression curve fitting using the Assay Explorer software package from MDL.
A general note: Scintillation proximity formats need no separation of bound from free tracer.

Test [2] concerns the target T2, PDE4B: The catalytic domain of human PDE4B from S152-S528 (Homo sapiens, UniProt Q07343).
T2 construct: His6 (N); thrombin cleavage site (N); made in house; host or cells: E. coli
As to the kind of experiment: PDE4 IC50 determination by Scintillation Proximity Assay, PDE4B. The following applies: Table 1B, Formula I compounds; read-out: IC50 PDE4B. The procedure, abridged:
(§5)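 Radiometric SPA: PDE4B (80 ng/ml) or PDE4D (4 ng/ml) hydrolysed [^3H]cAMP over 30 min at 30°, and the bead-bound [^3H]AMP was scintillation-counted.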

For test [3], the target named is T3, full-length human PDE4D5 isozyme (Homo sapiens, UniProt Q08499).
T3 construct: The full-length human PDE4D5 isozyme; His6 (N); TEV cleavage site (N); made in house; host or cells: baculovirus infected insect cells (unpurified lysate)
T3 sequence (Q08499 1-745 isoform Q08499-6): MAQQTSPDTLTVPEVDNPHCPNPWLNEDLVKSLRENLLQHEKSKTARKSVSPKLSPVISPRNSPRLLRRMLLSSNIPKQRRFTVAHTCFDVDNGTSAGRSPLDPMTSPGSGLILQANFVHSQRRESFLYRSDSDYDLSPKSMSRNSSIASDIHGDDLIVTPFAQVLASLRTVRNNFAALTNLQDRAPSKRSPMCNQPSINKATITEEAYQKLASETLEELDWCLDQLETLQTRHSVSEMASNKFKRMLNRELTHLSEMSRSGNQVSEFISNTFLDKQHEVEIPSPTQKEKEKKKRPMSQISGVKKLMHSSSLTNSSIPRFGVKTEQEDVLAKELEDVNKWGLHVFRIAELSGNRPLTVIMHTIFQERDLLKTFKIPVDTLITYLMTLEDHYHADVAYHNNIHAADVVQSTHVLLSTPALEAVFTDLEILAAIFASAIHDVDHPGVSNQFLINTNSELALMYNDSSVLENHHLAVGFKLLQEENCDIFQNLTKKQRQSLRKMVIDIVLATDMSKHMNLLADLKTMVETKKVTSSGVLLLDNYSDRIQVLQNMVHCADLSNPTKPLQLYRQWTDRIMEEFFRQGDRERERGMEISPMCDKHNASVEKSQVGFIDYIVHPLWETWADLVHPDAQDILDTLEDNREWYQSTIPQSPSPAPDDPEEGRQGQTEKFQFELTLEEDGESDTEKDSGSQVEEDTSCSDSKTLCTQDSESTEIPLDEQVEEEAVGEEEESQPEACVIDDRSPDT
Briefly: PDE4 IC50 determination by Scintillation Proximity Assay, PDE4D5. As to conditions: Table 1B, Formula I compounds; read-out: IC50 PDE4D5. Here is the method: as §1, §2, §3
PDE4D5: The full-length human PDE4D5 isozyme with an N-terminal His6 tag (SEQ ID NO: 18) and TEV cleavage site expressed in baculovirus infected insect cells. The enzyme was not purified from the cell lysates, so enzyme concentrations were not determined. Enzyme was stored in 50% glycerol at −20°.
as §4

The target in another test is T4, PDE4D (Homo sapiens, UniProt Q08499).
T4 construct: PDE4D: The catalytic domain of human PDE4B from S3 16-V692; His6 (N); thrombin cleavage site (N); made in house; host or cells: E. coli
T4 sequence (Q08499 380-756): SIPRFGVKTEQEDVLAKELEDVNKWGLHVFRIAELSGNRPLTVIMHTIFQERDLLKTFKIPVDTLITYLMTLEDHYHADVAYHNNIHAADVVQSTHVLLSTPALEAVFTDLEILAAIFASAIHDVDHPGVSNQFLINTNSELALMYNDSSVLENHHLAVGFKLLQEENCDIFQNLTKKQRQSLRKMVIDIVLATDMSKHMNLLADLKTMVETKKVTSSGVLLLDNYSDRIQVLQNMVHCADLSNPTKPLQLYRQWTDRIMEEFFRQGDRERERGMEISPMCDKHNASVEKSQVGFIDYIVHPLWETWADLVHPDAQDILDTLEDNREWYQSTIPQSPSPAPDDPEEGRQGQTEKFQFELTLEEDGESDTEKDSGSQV
Briefly: PDE4 IC50 determination by Scintillation Proximity Assay, PDE4D. As to conditions: Table 1B, Formula I compounds; read-out: IC50 PDE4D. The procedure, abridged: as §5

pIC50: −log10 of the molar value.

T1 sequence (Q07343 1-564 isoform Q07343-2): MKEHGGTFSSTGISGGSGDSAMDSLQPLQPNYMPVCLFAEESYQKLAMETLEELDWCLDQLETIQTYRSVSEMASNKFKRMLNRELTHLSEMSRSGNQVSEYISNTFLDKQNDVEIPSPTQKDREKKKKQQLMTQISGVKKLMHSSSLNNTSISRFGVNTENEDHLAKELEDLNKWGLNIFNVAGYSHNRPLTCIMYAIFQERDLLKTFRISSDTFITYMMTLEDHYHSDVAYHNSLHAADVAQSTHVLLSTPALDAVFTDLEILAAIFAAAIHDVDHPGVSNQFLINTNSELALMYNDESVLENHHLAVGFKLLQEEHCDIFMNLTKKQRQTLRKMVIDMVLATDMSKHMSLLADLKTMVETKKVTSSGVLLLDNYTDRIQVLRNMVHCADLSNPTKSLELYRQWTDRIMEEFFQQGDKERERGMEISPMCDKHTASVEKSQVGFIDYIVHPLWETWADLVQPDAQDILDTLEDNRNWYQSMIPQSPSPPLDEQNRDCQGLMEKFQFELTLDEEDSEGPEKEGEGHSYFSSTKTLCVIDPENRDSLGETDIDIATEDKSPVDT
T2 sequence (Q07343 with tags, fused parts or gaps): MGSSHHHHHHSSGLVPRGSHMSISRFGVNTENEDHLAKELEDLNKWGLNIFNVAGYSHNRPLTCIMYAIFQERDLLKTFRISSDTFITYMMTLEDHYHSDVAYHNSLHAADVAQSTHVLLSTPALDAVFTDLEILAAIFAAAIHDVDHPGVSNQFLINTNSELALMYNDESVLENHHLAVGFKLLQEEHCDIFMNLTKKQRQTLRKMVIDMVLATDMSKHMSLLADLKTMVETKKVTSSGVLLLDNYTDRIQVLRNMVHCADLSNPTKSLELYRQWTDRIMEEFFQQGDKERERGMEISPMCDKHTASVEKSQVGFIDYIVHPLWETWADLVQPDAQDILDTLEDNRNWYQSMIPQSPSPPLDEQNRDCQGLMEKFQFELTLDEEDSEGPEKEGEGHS

One may read the pIC50 as the IC50 on a negative log10 scale, so that one unit is a factor of ten. `COc1ccccc1Nc1sc(C(=O)c2ccc(C)cc2)c(N)c1C#N` [Compound 1-2, 4-Amino-2-(2-methoxy-phenylamino)-5-(4-methyl-benzoyl)-thiophene-3-carbonitrile]: the negative-log IC50 (pIC50) (in test [1]; in test [2]; in test [3]; at PDE4D) was greater than 5.00 throughout.

`N#Cc1c(Nc2ccc(Oc3ccccc3)cc2)sc(C(=O)c2cc(-c3ccccc3)no2)c1N` [Compound 1-187, 4-Amino-2-(4-phenoxy-phenylamino)-5-(3-phenyl-isoxazole-5-carbonyl)-thiophene-3-carbonitrile]: the pIC50 (in test [1]; in test [2]; in test [3]; at PDE4D) was less than 5.00 in each case.

Take `Cc1ccc(C(=O)c2sc(NC(=O)c3ccccc3C)c(C#N)c2N)c(C)c1` [Compound 1-86, N-[4-Amino-3-cyano-5-(2,4-dimethyl-benzoyl)-thiophen-2-yl]-2-methyl-benzamide]: the negative logarithm of the IC50 (pIC50) in test [1] was less than 5.00; in test [2], greater than 5.00; in test [3] it was less than 5.00; on PDE4D, greater than 5.00.

On to `N#Cc1c(NCCN2CCCCC2)sc(C(=O)c2cc(-c3ccc(Cl)c(Cl)c3)no2)c1N` [Compound 1-83, 4-Amino-5-[3-(3,4-dichloro-phenyl)-isoxazole-5-carbonyl]-2-(2-piperidin-1-yl-ethylamino)-thiophene-3-carbonitrile], for which the negative logarithm of the IC50 (pIC50) (in test [1]; in test [2]; in test [3]; on PDE4D) was less than 5.00 each time.

As for `N#Cc1c(NCc2cccc(Cl)c2)sc(C(=O)c2cc(-c3ccccc3)no2)c1N` [Compound 1-214, 4-Amino-2-(3-chloro-benzylamino)-5-(3-phenyl-isoxazole-5-carbonyl)-thiophene-3-carbonitrile], the negative-log IC50 (pIC50) (in test [1]; in test [2]; in test [3]; at PDE4D) was less than 5.00 throughout.

For the compound `N#Cc1c(NCCN2CCCCC2)sc(C(=O)c2cc(-c3ccccc3)no2)c1N` [Compound 1-62, 4-Amino-5-(3-phenyl-isoxazole-5-carbonyl)-2-(2-piperidin-1-yl-ethylamino)-thiophene-3-carbonitrile], the negative-log IC50 (pIC50) (in test [1]; in test [2]; in test [3]; on PDE4D) was less than 5.00 in each case.

`Cc1c(C(=O)c2sc(NC3CCCC3)c(C#N)c2N)cnn1-c1ccccc1` [Compound 1-55, 4-Amino-2-cyclopentylamino-5-(5-methyl-1-phenyl-1H-pyrazole-4-carbonyl)-thiophene-3-carbonitrile]: the pIC50 (in test [1]; in test [2]; in test [3]; at PDE4D) was greater than 5.00 in each case.

Consider `Cc1ccc(C(=O)c2sc(NC3CCCC3)c(C#N)c2N)c(C)c1` [Compound 1-90, 4-Amino-2-cyclopentylamino-5-(2,4-dimethyl-benzoyl)-thiophene-3-carbonitrile], for which the pIC50 (in test [1]; in test [2]; in test [3]; on PDE4D) was greater than 5.00 each time.

Regarding `COc1ccc(C(=O)c2sc(Nc3cccc(C#N)c3)c(C#N)c2N)c(OC)c1` [Compound 1-155, 4-Amino-2-(3-cyano-phenylamino)-5-(2,4-dimethoxy-benzoyl)-thiophene-3-carbonitrile], the negative logarithm of the IC50 (pIC50) (in test [1]; in test [2]; in test [3]; at PDE4D) was greater than 5.00 each time.

Take `COc1cccc(CNc2sc(C(=O)c3cc(-c4ccccc4)no3)c(N)c2C#N)c1` [Compound 1-216]: the negative logarithm of the IC50 (pIC50) (in test [1]; in test [2]; in test [3]; on PDE4D) was less than 5.00 each time.

In the case of `CCNC(=O)c1cc(C(=O)c2sc(NC3CCCC3)c(C#N)c2N)on1` [Compound 1-198, 5-(3-Amino-4-cyano-5-cyclopentylamino-thiophene-2-carbonyl)-isoxazole-3-carboxylic acid ethylamide], the pIC50 in test [1] was less than 5.00; in test [2] it was greater than 5.00; in test [3], less than 5.00; at PDE4D, greater than 5.00.

Turning to `CCOC(=O)c1cc(C(=O)c2sc(NC3CCCC3)c(C#N)c2N)on1` [Compound 1-139, 5-(3-Amino-4-cyano-5-cyclopentylamino-thiophene-2-carbonyl)-isoxazole-3-carboxylic acid ethyl ester], the negative logarithm of the IC50 (pIC50) (in test [1]; in test [2]; in test [3]; on PDE4D) was greater than 5.00 in each case.

On to `COC(=O)C(CCSC)Nc1sc(C(=O)c2ccc(-c3ccccn3)s2)c(N)c1C#N` (stereo not shown) [Compound 1-74, 2-[4-Amino-3-cyano-5-(5-pyridin-2-yl-thiophene-2-carbonyl)-thiophen-2-ylamino]-4-methylsulfanyl-butyric acid methyl ester], for which the pIC50 (in test [1]; in test [2]; in test [3]; at PDE4D) was greater than 5.00 throughout.

For the compound `CCOC(=O)c1c(Nc2ccccc2F)sc(C(=O)c2ccc(Cl)cc2)c1N` [Compound 1-22, 4-Amino-5-(4-chloro-benzoyl)-2-(2-fluoro-phenylamino)-thiophene-3-carboxylic acid ethyl ester], the negative-log IC50 (pIC50) (in test [1]; in test [2]; in test [3]; at PDE4D) was greater than 5.00 in each case.

`COc1ccc(CNc2sc(C(=O)c3ccc(-c4ccccn4)s3)c(N)c2C#N)cc1OC` [Compound 1-75, 4-Amino-2-(3,4-dimethoxy-benzylamino)-5-(5-pyridin-2-yl-thiophene-2-carbonyl)-thiophene-3-carbonitrile]: the pIC50 (in test [1]; in test [2]; in test [3]; on PDE4D) was greater than 5.00 each time.

Take `N#Cc1c(Nc2ccccc2)sc(C(=O)c2ccccc2)c1N` [Compound 1-16, 4-Amino-5-benzoyl-2-phenylamino-thiophene-3-carbonitrile]: the negative logarithm of the IC50 (pIC50) in test [1] was less than 5.00; in test [2], greater than 5.00; in test [3], less than 5.00; at PDE4D, less than 5.00.

For the compound `N#Cc1c(NC2CCCC2)sc(C(=O)c2cc(-c3ccc(Cl)c(Cl)c3)no2)c1N` [Compound 1-172, 4-Amino-2-cyclopentylamino-5-[3-(3-4-dichloro-phenyl)-isoxazole-5-carbonyl]-thiophene-3-carbonitrile], the negative logarithm of the IC50 (pIC50) in test [1] is greater than 5.00; in test [2], greater than 5.00; in test [3] it was less than 5.00; on PDE4D, less than 5.00.

On to `CC(C)CNc1sc(C(=O)c2ccc(Oc3ccccc3)cc2)c(N)c1C#N` [Compound 1-233, 4-Amino-2-isobutylamino-5-(4-phenoxy-benzoyl)-thiophene-3-carbonitrile], for which the negative logarithm of the IC50 (pIC50) (in test [1]; in test [2]; in test [3]; at PDE4D) was greater than 5.00 throughout.

With `CCOC(=O)c1c(Nc2ccccc2OC)sc(C(=O)c2ccc(Br)cc2)c1N` [Compound 1-1, 4-Amino-5-(4-bromo-benzoyl)-2-(2-methoxy-phenylamino)-thiophene-3-carboxylic acid ethyl ester], the pIC50 (in test [1]; in test [2]; in test [3]; at PDE4D) was greater than 5.00 each time.
